Like-named read-outs stand apart in the source and are kept apart here.
How the values were obtained:
HepG2 = assay: CCK-8 anti-tumor activity, IC50; assay type: cell-based; details: Homo sapiens
Experimental: (§1) Take cells in logarithmic growth phase for experiments. Digest and count the cells, then make them into a cell suspension in 1×10^5 cells/mL, next seed the cell suspension in a 96-hole plate (100 μL per hole), then place the plate in a 5% CO2 incubator at 37° C. to be incubated for 24 hours. Add a subject with a corresponding concentration into each hole, and concurrently set up a negative control group and a blank group, each of which has 3 holes. After having placed the plate in the incubator for 72 hours, observe the morphologies of cells in each group under a microscope, then add a 10 μL CCK8 solution to each hole, and continue incubating the cells in the incubator for 4 hours, measure the absorbance value at 450 nm. In the test, take cells with 8 concentration gradients respectively, then measure the inhibition rate corresponding to each concentration. Use the GraphPad Prism 5.0 statistical software to treat data, use the t-test software to make a comparison between two groups, and use the One-way Anova (Dunnett) software to make a comparison among multiple groups. if P<0.05, the results have statistical significance, and then calculate the IC50 value.

SW480 = assay: CCK-8 anti-tumor activity, IC50; assay type: cell-based; details: Homo sapiens, 72 hours
Experimental: as §1

Hela = assay: CCK-8 anti-tumor activity, IC50; assay type: cell-based; details: Homo sapiens
Experimental: as §1

A549 = assay: CCK-8 anti-tumor activity, IC50; assay type: cell-based; details: Homo sapiens, 72 hours
Experimental: as §1

HepG2 cell strain = assay: In-vitro inhibitory activity against proliferation of tumor cells (CCK8, inhibition rate); assay type: cell-based, human; details: for inhibition at 1 µM / inhibition at 10 µM / inhibition at 0.1 µM: Homo sapiens, 72 hours
Experimental: Take cells in logarithmic growth phase for experiments. Digest and count the cells, then make them into a cell suspension in 1×10^5 cells/mL, next seed the cell suspension in a 96-hole plate (100 μL per hole), then place the plate in a 5% CO2 incubator at 37° C. to be incubated for 24 hours. Add a subject with a corresponding concentration into each hole, and concurrently set up a negative control group and a blank group, each of which has 3 holes. After having placed the plate in the incubator for 72 hours, observe the morphologies of cells in each group under a microscope, then add a 10 μL CCK8 solution to each hole, and continue incubating the cells in the incubator for 4 h. Measure the absorbance value at 450 nm, and calculate the inhibition rate of cell proliferation; if P<0.05, the results have statistical significance.

[1] = tested on: human hepatoma cell HepG2 xenotransplantation tumor; assay: Gavage administration, inhibition of xenografted tumors of tumor-bearing nude mice; assay type: in vivo; details: 14 times; for Tumor weight: day 15; for Inhibition rate(%): tumor weight vs model group
Excerpt: Inoculate the human hepatoma cell strain HepG2 subcutaneously at an armpit of a nude mouse, as to establish a human hepatoma cell HepG2 xenotransplantation tumor model. Take the cells HepG2 in logarithmic growth phase, under sterile conditions, inoculate the cells subcutaneously at right armpits of 55 nude mice. Measure the diameter of the xenograft tumors by a vernier caliper, when the tumors grow to about 100 mm^3, choose 48 tumor-bearing nude mice having an uniform tumor size in a good growth status, then randomly divide them into 8 groups, each of which has 6 mice, namely a model group, a 7a low-dosage group (50 mg/kg), a 7a medium-dosage group (100 mg/kg), a 7a high-dosage group (150 mg/kg), and a sorafenib group (50 mg/kg). Share an isovolumic solvent among the mice in the model group through gavage, administer drugs through gavage once a day. Administer drugs in the 7a low-dosage group, the 7a medium-dosage group, and the 7a high-dosage group once a day at 50 mg/kg, 100 mg/kg, and 150 mg/kg, respectively, to reach 14 times administration in total. Administer drugs in the sorafenib group once a day at 50 mg/kg, to reach 14 times administration in total. Dynamically observe the anti-tumor effect of the subjects by adopting the method of measuring tumor diameters. Measure the tumor diameter on alternate days, while weigh the body weight of nude mice. On the 15th day, kill the mice, then pick away tumor lumps surgically and weigh them, and preserve the tumor tissue in a liquid nitrogen tank, next calculate the tumor inhibition rate (%). Tumor inhibition rate (%)= (tumor weight in the model group-tumor weight in the administration group)/tumor weight in the model group×100%.

MCF-7 = assay: CCK-8 anti-tumor activity, IC50; assay type: cell-based, human; details: for IC50: Homo sapiens, MCF7, MCF-7, 72 hours
Experimental: as §1

SGC7901 = assay: CCK-8 anti-tumor activity, IC50; assay type: cell-based, human; details: for IC50: Homo sapiens, SGC-7901, SGC7901, 72 hours
Experimental: as §1

[2] = read-out: IC50 value against the Hela cells

Compound: COc1ccc(CCc2cc(OC)c(OC)c(OC)c2)cc1OC(=O)C(Cl)Cl [7a, 2-methoxy-5-(3,4,5-trimethoxyphenylethyl) phenyl 2,2-dichloroacetate]
- IC50 (HepG2; 72 hours, read-out: IC50): 0.0489 µM
- IC50 (HepG2; read-out: IC50 value against the HepG2 cells): 0.0489 µM
- IC50 (SW480): 0.94 µM
- IC50 (Hela; 72 hours, read-out: IC50): 0.516 µM
- IC50 (Hela; [2]): 0.516 µM
- IC50 (A549): 0.726 µM
- inhibitory activity against HepG2 cells (in words) (HepG2 cell strain): good inhibitory activity
- inhibition at 1 µM (HepG2 cell strain): 94.43 ± 0.89%
- inhibition at 10 µM (HepG2 cell strain): 89.3 ± 1.5%
- Tumor weight ([1]; 50 mg/kg gavage once a day): 0.569 ± 0.103 g
- Inhibition rate(%) ([1]; 50 mg/kg gavage once a day): 62.0%
- Tumor weight ([1]; 100 mg/kg gavage once a day): 0.479 ± 0.100 g
- Inhibition rate(%) ([1]; 100 mg/kg gavage once a day): 72.4%
- Tumor weight ([1]; 150 mg/kg gavage once a day): 0.314 ± 0.076 g
- Inhibition rate(%) ([1]; 150 mg/kg gavage once a day): 86.9%
- IC50 (MCF-7): 0.655 µM
- IC50 (SGC7901): 0.469 µM

Compound: CCOc1ccc(CCc2cc(OC)c(OC)c(OC)c2)cc1OC(=O)C(Cl)Cl [7b]
- inhibitory activity against HepG2 cells (in words) (HepG2 cell strain): better than that of erianin
- inhibition at 0.1 µM (HepG2 cell strain): 35.7 ± 2.42%
- inhibition at 1 µM (HepG2 cell strain): 48.4 ± 9.88%
- inhibition at 10 µM (HepG2 cell strain): 73.7 ± 4.7%

Compound: COc1ccc(CCc2cc(OC)c(OC)c(OC)c2)cc1OC(=O)CNC(=O)C(Cl)Cl [8a, 2-methoxy-5-(3,4,5-trimethoxyphenylethyl) phenyl3-(2,2-dichloroacetamide) acetate]
- inhibition at 0.1 µM (HepG2 cell strain): 18.5 ± 1.16%
- inhibition at 1 µM (HepG2 cell strain): 30 ± 2.03%
- inhibition at 10 µM (HepG2 cell strain): 45.6 ± 2.53%

Compound: COc1ccc(CCc2cc(OC)c(OC)c(OC)c2)cc1OC(=O)CCNC(=O)C(Cl)Cl [8b, 2-methoxy-5-(3,4,5-trimethoxyphenyletyl) phenyl3-(2,2-dichloroacetamide) propionate]
- inhibition at 0.1 µM (HepG2 cell strain): 37.5 ± 4.49%
- inhibition at 1 µM (HepG2 cell strain): 55.8 ± 4.37%
- inhibition at 10 µM (HepG2 cell strain): 74.2 ± 2.41%

Compound: COc1ccc(CCc2cc(OC)c(OC)c(OC)c2)cc1OC(=O)CCCNC(=O)C(Cl)Cl [8c, 2-methoxy-5-(3,4,5-trimethoxyphenylethy) phenyl4-(2,2-dichloroacetamide) butyrate]
- inhibition at 0.1 µM (HepG2 cell strain): 36.1 ± 11.7%
- inhibition at 1 µM (HepG2 cell strain): 68.7 ± 0.72%
- inhibition at 10 µM (HepG2 cell strain): 89.27 ± 0.66%

Compound: COc1ccc(CCc2cc(OC)c(OC)c(OC)c2)cc1OC(=O)CCCCCNC(=O)C(Cl)Cl [8d, 2-methoxy-5-(3,4,5-trimethoxyphenylethyl) phenyl6-(2,2-dichloroacetamide) hexanoate]
- IC50 (HepG2; 72 hours, read-out: IC50): 0.135 µM
- IC50 (SW480): 0.326 µM
- IC50 (Hela; 72 hours, read-out: IC50): 0.288 µM
- IC50 (Hela; [2]): 0.288 µM
- inhibitory activity against HepG2 cells (in words) (HepG2 cell strain): good inhibitory activity
- inhibition at 0.1 µM (HepG2 cell strain): 50.9 ± 4.44%
- inhibition at 1 µM (HepG2 cell strain): 73 ± 3.1%
- inhibition at 10 µM (HepG2 cell strain): 90.6 ± 2.33%
- IC50 (MCF-7): 0.174 µM
- inhibitory activity compared with erianin (in words) (MCF-7; human breast cancer MCF-7 cell strains): superior to erianin
- IC50 (SGC7901): 0.103 µM
- inhibitory activity compared with erianin (in words) (SGC7901; human gastric cancer SGC7901 cell strains): superior to erianin

Compound: CNC(=O)c1cc(Oc2ccc(NC(=O)Nc3ccc(Cl)c(C(F)(F)F)c3)cc2)ccn1 [sorafenib, reference compound]
- Tumor weight ([1]; 50 mg/kg gavage once a day): 0.581 ± 0.089 g
- Inhibition rate(%) ([1]; 50 mg/kg gavage once a day): 59.3%
